The source of these data is patent US8273768B2, “Iso CA-4 and analogues thereof as potent cytotoxic agents inhibiting tubuline polymerization” (Centre National de la Recherche Scientifique (CNRS), priority 2007, dated 2012).

The structures appear in SMILES notation. pIC50: −log10 of the molar value. Like-named read-outs stand apart in the source and are kept apart here.

The test system of series [1] is mouse leukemic P-388 cells. The settings on record: cited from earlier work.
Another series has as its system HCT116. The experiment in a line: Study of cytotoxicity (CellTiter-Blue, 72 hours). The format is cell-based. The following applies: Homo sapiens, HCT-116; 72 hours of incubation; read-out: IC50 for different cell lines: HCT116. As to the method:
(§1) The biological activity of the compounds of the invention was studied in vitro on 7 human cancer cell lines with different tissue origins (HCT116: colorectal carcinoma; K562: chronic myeloid leukemia; B16-F10: melanoma; U87: glioblastoma; A549: lung cancer and MDA-MB 231 and MDA-MB 435: breast cancer). The cells selected for the study were incubated at 37° C. in the presence of one of the compounds added into the culture medium at different concentrations. The whole of the conducted experiments allowed determination of the toxicity level of the tested compound, its effect on the course of the cell cycle as well as its capacity of inducing cell death by apoptosis.
(§2) The cancer cell lines originate from the American Type Culture Collection (Rockville, Md., USA) and were grown according to the recommendations of the supplier.
(§3) The cells A549, U87, MDA-MB231, MDA-MB435 and B16F10 were grown in a culture medium “Dulbecco minimal essential medium” (DMEM) containing 4.5 g/L of glucose and supplemented with 10% fetal calf serum and 1% glutamine. The K562 and HCT116 were grown in an RPMI 1640 medium containing 10% fetal calf serum and 1% glutamine. All the cell lines were maintained in the culture at 37° C. in a humid atmosphere containing 5% of CO2. Cell viability was evaluated by using the reagent “CellTiter-Blue™” (Promega, Wis., USA) while observing the instructions of the manufacturer. The cells were sown in 96-well culture plates with 5000 cells per well in 50 μL of culture medium. After 24 hours of culture, the compounds of general formula (I) dissolved in DMSO were individually added into each of the wells in an amount of 50 μl per well. All the compounds were tested in triplicate for each defined concentration and each experiment was repeated three times. After 72 hours of incubation, 20 μL of resazurin were added in each well. After 2 hours of incubation, the emitted fluorescence was measured at 590 nm after excitation at 560 nm by means of a fluorescence reader of the Victor type (Perkin-Elmer, USA).
(§4) The concentration of each of the compounds which induces the death of 50% of the cells (IC50) was determined after 72 hours of incubation. Certain compounds according to the invention have an IC50 of the order of one nanomolar concentration, therefore equivalent to CA-4 taken as a reference.

The next series concerns MDA-MB 231. The experiment in a line: Study of cytotoxicity (CellTiter-Blue, 72 hours). The format is cell-based. The settings on record: Homo sapiens, read-out: IC50 for different cell lines: M231. As to the method:
as §1, §2, §3, §4

A further series has as its system A549. The experiment in a line: Study of cytotoxicity (CellTiter-Blue, 72 hours). It counts as cell-based. The following applies: Homo sapiens, read-out: IC50 for different cell lines: A549. As to the method:
as §1, §2, §3, §4

In a further series the test system is MDA-MB 435. The experiment in a line: Study of cytotoxicity (CellTiter-Blue, 72 hours). It counts as cell-based. The following applies: Homo sapiens, read-out: IC50 for different cell lines: M435. As to the method:
as §1, §2, §3, §4

Series [2] addresses T1, purified tubulin from pig brains (Sus scrofa, UniProt P02550+P02554).
T1 construct: from pig brains, where it forms 20-25% of the soluble proteins; from tissue; host or cells: pig brain
As to the kind of experiment: Inhibition of polymerization of tubulin (turbidimetry). The settings on record: pig brain tubulin, turbidimetry at 350 nm. The format is biochemical. As to the method: Tests relating to the inhibition of polymerization of tubulin were carried out on compounds which had the best cytotoxic activities. These tests were carried out on purified tubulin by the Shelanski method (Shelanski, M. C.; Gaskin, F.; Cantor, C. R. Proc. Natl. Acad. Sci. USA, 1973, 70, 765-768) from pig brains, where it forms 20-25% of the soluble proteins. Purification method is based on temperature-dependent assembling-disassembling cycles. Polymerization of tubulin was tracked with turbidimetry according to the Gaskin method (Gaskin, F.; Cantor, C. R.; Shelanski, M. L. J. Bio. Mol. 1974, 89, 737) at a wavelength of 350 nm. The different samples were dissolved in DMSO and incubated for 10 minutes at 37° C. and then for 5 minutes at 0° C.
The CA-4 compound and DMSO were taken as references.
The tests have shown for these compounds an activity inhibiting polymerization of tubulin similar to the one of the reference compound CA-4 (of the order of only one micromolar concentration to a few tens of micromolar concentrations).

The subject of a further series is U87. As to the kind of experiment: Study of cytotoxicity (CellTiter-Blue, 72 hours). The settings on record: Homo sapiens, U-87 MG, read-out: IC50 for different cell lines: U87. It counts as cell-based. As for the experimental part:
as §1, §2, §3, §4

The test system of series [3] is mouse colon adenocarcinoma 26. The following applies: cited from earlier work.
In the next series the test system is HCT 15 cells. The following applies: read-out: IC50, cytotoxic activity; cited from earlier work.
Series [4] concerns human colon tumors LS174T xenografted in Nude mice. As to the kind of experiment: Antivascular activity in vivo (MRI, Dotarem entry into tumors). The following applies: LS174T xenograft, 3 hours after administration, DMXAA 27.5 mg/kg IP, (I-1) 45 mg/kg IV. As to the method:
The antivascular effect of the molecule (I-1) was tested on mice bearing human tumors by comparison with the positive control DMXAA, according to the procedure described by Beauregard et al. (NMR Biomed., 2002, 15:99-105).
Thus, CD-1 Nude female mice were xenografted by subcutaneous injection of human colon tumoral cells (LS174T). The mice bearing tumors were then treated with 0.9% NaCl (carrier, 10 mL/kg), DMXAA (27.5 mg/kg) via an intraperitoneal route (IP) or the molecule (I-1) (45 mg/kg) via an intravenous route (IV). Three hours after administration, the mice were treated with the Dotarem® contrast agent intravenously (IV). The penetration of the contrast agent into the tumors was followed in real time by magnetic resonance imaging (MRI) and is expressed by an enhancement of the intensity of the signal in the tumors. Densitometric analysis of the acquired images allows determination of the maximum enhancement (Rmax) as well as the slope P0 corresponding to the entry rate of Dotarem® into the tumors.

The mark [5] stands for this setting: MDA-MB-231, 72 hours of incubation.
Setting [6] is: MDA-MB-435, 72 hours of incubation.

T1 sequence (P02554 whole entry): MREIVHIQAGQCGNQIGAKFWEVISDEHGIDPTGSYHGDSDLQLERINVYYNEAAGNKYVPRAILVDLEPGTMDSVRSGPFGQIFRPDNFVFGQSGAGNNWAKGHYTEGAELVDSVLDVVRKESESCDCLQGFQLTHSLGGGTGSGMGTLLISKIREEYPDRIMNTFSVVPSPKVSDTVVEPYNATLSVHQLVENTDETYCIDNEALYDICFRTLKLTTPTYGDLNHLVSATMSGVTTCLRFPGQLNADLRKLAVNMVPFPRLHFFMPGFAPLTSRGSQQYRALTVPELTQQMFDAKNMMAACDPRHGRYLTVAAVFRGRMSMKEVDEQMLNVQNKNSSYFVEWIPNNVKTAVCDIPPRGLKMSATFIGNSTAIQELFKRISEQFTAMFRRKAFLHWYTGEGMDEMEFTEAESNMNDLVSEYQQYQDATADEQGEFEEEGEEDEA
T1 sequence (P02550 whole entry): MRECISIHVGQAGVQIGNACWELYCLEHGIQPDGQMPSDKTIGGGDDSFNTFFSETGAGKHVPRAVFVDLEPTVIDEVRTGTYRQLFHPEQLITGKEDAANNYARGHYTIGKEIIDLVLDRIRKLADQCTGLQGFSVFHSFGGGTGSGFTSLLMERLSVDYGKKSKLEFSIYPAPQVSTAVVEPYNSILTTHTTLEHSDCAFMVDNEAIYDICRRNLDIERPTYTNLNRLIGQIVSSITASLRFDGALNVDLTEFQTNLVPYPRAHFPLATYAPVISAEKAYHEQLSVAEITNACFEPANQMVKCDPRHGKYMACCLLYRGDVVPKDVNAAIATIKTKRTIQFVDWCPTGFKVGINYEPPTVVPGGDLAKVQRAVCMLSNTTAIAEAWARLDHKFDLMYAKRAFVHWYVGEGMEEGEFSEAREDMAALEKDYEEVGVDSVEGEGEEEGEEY

Turning to `COc1ccc(C=Cc2cc(OC)c(OC)c(OC)c2)cc1O` (single isomer, unassigned) [E isomer of CA-4], in series [1], the “Cytotoxic activity, times weaker than the natural Z isomer” value is listed as “about 60 times”.
Turning to `C=C(c1ccc(OC)cc1)c1cc(OC)c(OC)c(OC)c1` [(I-2)], the pIC50 is 7.38 in the series with HCT116; 7.40 in the series with MDA-MB 231 (setting [5]); 7.55 with A549 (A549, 72 hours of incubation); 7.60 with MDA-MB 435 (setting [6]); 5.48 to 5.70 in [2].
With `C=C(c1ccc(OC)c(OC(C)=O)c1)c1cc(OC)c(OC)c(OC)c1` [(I-6)], the pIC50 was 8.10 with HCT116; 7.74 in the series with U87 (72 hours of incubation); 8.05 with MDA-MB 231 (setting [5]); 7.60 with A549 (A549, 72 hours of incubation); 7.96 in the series on MDA-MB 435 (setting [6]).
Taken in the same sequence, the figures for `C=C(c1ccc(OC)c(OC(=O)C(C)(C)C)c1)c1cc(OC)c(OC)c(OC)c1` [(I-7)] were 8.10, 7.82, 7.30, 7.55 and 7.60.
`C=C(c1ccc(OC)c(OC(=O)CCCc2ccc(N(CCCl)CCCl)cc2)c1)c1cc(OC)c(OC)c(OC)c1` [(I-8)]: the pIC50 is 7.60 in the series with HCT116; 7.46 in the series on U87 (72 h); 7.30 in the series on MDA-MB 231 (MDA-MB-231, 72 h); 7.38 in the series on A549 (A549, 72 h); 7.40 in the series on MDA-MB 435 (MDA-MB-435, 72 h).
`C=C(c1ccc(OC)c(N)c1)c1cc(OC)c(OC)c(OC)c1` [(I-17)]: the negative logarithm of the IC50 (pIC50) is 8.22 with MDA-MB 231 (setting [5]); 8.10 with A549 (A549, 72 hours of incubation); 5.74 in [2].
On to `C=C(c1ccc(OC)c(F)c1)c1cc(OC)c(OC)c(OC)c1` [(I-22)], for which the negative logarithm of the IC50 (pIC50) is 8.15 in the series on HCT116 and 5.39 in [2].
Regarding `C=C(c1ccc(OC)c(OC(=O)[C@@H](COC(C)(C)C)NC(=O)OCC2c3ccccc3-c3ccccc32)c1)c1cc(OC)c(OC)c(OC)c1` [(I-32)], the negative-log IC50 (pIC50) in the series with HCT116 was 8.10.
The same measure, in the same setting: then `C=C(c1ccc(OC)c(OC(=O)c2ccncc2)c1)c1cc(OC)c(OC)c(OC)c1` [(I-34)], with 8.52; and `C=C(c1ccc(OC)c(OC(=O)CCC(=O)O)c1)c1cc(OC)c(OC)c(OC)c1` [(I-35)], with 8.30; and `C=C(c1ccc(OC)c(OC(=O)CN(C)C)c1)c1cc(OC)c(OC)c(OC)c1` [(I-36)], with 8.52.
Turning to `C=C(c1ccc(OC)c(OC(=O)Cc2cccc3c(=O)c4ccc(C)c(C)c4oc23)c1)c1cc(OC)c(OC)c(OC)c1` [(I-45)], the pIC50 in the series on HCT116 was 8.15.
Regarding `COc1ccc(/C=C\c2cc(OC)c(OC)c(OC)c2)cc1O` [CA-4, combrestatatin A-4], the “Antitumoral activity in vivo” value in [3] is “no antitumoral activity is observed”. In addition, the pIC50 with HCT 15 cells is 9.05.
Consider `Cc1ccc2c(=O)c3cccc(CC(=O)O)c3oc2c1C` [DMXAA, 5,6-dimethylxanthenone-4-acetic acid, reference compound], for which, in [4], the “Average of P0” value worked out at 0.50±0.40 arbitrary unit and the “Average of Rmax” value was 26.58±21.19 % of the NaCl control.
